Source: ChEMBL document CHEMBL1201861, “Genomics of Drug Sensitity in Cancer screening data, Wellcome Trust Sanger Institute”

Key:
Experiment in all cases: cells
8305C = type: functional, cell-based, Homo sapiens; conditions: Homo sapiens, 8305C
Description: SANGER: Inhibition of human 8305C cell growth in a cell viability assay.

CFPAC-1 = type: functional, cell-based; conditions: Homo sapiens;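 also: cell viability readout used to gauge suppression of CFPAC-1 cell proliferation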
Description: SANGER: Inhibition of human CFPAC-1 cell growth in a cell viability assay.

NCI-H1666 = type: functional, cell-based; conditions: Homo sapiens;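 also: growth inhibition of the cell line, read out with a cell viability assay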
Description: SANGER: Inhibition of human NCI-H1666 cell growth in a cell viability assay.

SK-MEL-1 = type: functional, cell-based; conditions: Homo sapiens;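 also: growth inhibition of human SK-MEL-1 cells, read out by a cell viability assay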
Description: SANGER: Inhibition of human SK-MEL-1 cell growth in a cell viability assay.

H9 = type: functional, cell-based; conditions: Homo sapiens
Description: SANGER: Inhibition of human H9 cell growth in a cell viability assay.

HCT-15 = type: functional, cell-based, Homo sapiens; conditions: Homo sapiens, HCT-15;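 also: cell viability readout, IC50 reflecting suppression of HCT-15 cell growth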
Description: SANGER: Inhibition of human HCT-15 cell growth in a cell viability assay.

Kasumi 1 = type: functional, cell-based; conditions: Homo sapiens;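 also: growth inhibition of human Kasumi-1 cells, read out by a cell viability assay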
Description: SANGER: Inhibition of human KASUMI-1 cell growth in a cell viability assay.

ESS-1 = type: functional, cell-based, Homo sapiens; conditions: Homo sapiens, ESS-1;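 also: growth inhibition of human ESS-1 cells, read out by a cell viability assay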
Description: SANGER: Inhibition of human ESS-1 cell growth in a cell viability assay.

HPAF-II = type: functional, cell-based, Homo sapiens; conditions: Homo sapiens, HPAF-II;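 also: growth inhibition of HPAF-II cells, read out with a cell viability assay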
Description: SANGER: Inhibition of human HPAF-II cell growth in a cell viability assay.

D-566MG = type: functional, cell-based; conditions: Homo sapiens
COR-L23 = type: functional, cell-based, Homo sapiens; conditions: Homo sapiens, COR-L23;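 also: cell viability assay measuring how strongly compounds suppress growth of COR-L23 cells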
Description: SANGER: Inhibition of human COR-L23 cell growth in a cell viability assay.

ChaGo-K-1 = type: functional, cell-based; conditions: Homo sapiens;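 also: growth inhibition of ChaGo-K-1 cells, read out with a cell viability assay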
Description: SANGER: Inhibition of human ChaGo-K-1 cell growth in a cell viability assay.

HLE = type: functional, cell-based, Homo sapiens; conditions: Homo sapiens, HLE;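 also: growth inhibition of human HLE cells, read out by a cell viability assay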
Description: SANGER: Inhibition of human HLE cell growth in a cell viability assay.

EW-16 = type: functional, cell-based, Homo sapiens; conditions: Homo sapiens, EW-16;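 also: growth inhibition of human EW-16 cells, read out as cell viability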
Description: SANGER: Inhibition of human EW-16 cell growth in a cell viability assay.

OVCAR-8 = type: functional, cell-based, Homo sapiens; conditions: Homo sapiens, OVCAR-8;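 also: growth inhibition of human OVCAR-8 cells, read out by a cell viability assay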
Description: SANGER: Inhibition of human OVCAR-8 cell growth in a cell viability assay.

RH-18 = type: functional, cell-based; conditions: Homo sapiens, Rh18;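 also: growth inhibition of human RH-18 cells, read out with a cell viability assay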
Description: SANGER: Inhibition of human RH-18 cell growth in a cell viability assay.

HT55 = type: functional, cell-based, Homo sapiens; conditions: Homo sapiens, HT55;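 also: cell viability readout measuring growth inhibition of human HT55 cells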
Description: SANGER: Inhibition of human HT55 cell growth in a cell viability assay.

RPMI-8866 = type: functional, cell-based; conditions: Homo sapiens
Description: SANGER: Inhibition of human RPMI-8866 cell growth in a cell viability assay.

LU-135 = type: functional, cell-based; conditions: Homo sapiens
Description: SANGER: Inhibition of human LU-135 cell growth in a cell viability assay.

SKG-IIIa = type: functional, cell-based, Homo sapiens; conditions: Homo sapiens, SKG-IIIa;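 also: cell growth inhibition, read out with a cell viability assay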
Description: SANGER: Inhibition of human SKG-IIIa cell growth in a cell viability assay.

HCE-T = type: functional, cell-based, Homo sapiens; conditions: Homo sapiens, HCE-T;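 also: cell viability assay read-out, reporting inhibition of HCE-T cell growth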
Description: SANGER: Inhibition of human HCE-T cell growth in a cell viability assay.

KM-H2 = type: functional, cell-based; conditions: Homo sapiens;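 also: growth inhibition of KM-H2 cells, read out by a cell viability assay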
Description: SANGER: Inhibition of human KM-H2 cell growth in a cell viability assay.

KNS-62 = type: functional, cell-based; conditions: Homo sapiens;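 also: inhibition of cell growth, read out with a cell viability assay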
Description: SANGER: Inhibition of human KNS-62 cell growth in a cell viability assay.

A549 = type: functional, cell-based; conditions: Homo sapiens;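 also: growth inhibition of A549 cells, read out with a cell viability assay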
Description: SANGER: Inhibition of human A549 cell growth in a cell viability assay.

DoTc2-4510 = type: functional, cell-based, Homo sapiens; conditions: Homo sapiens, DoTc2-4510
MHH-ES-1 = type: functional, cell-based, Homo sapiens; conditions: Homo sapiens, MHH-ES-1;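 also: cell growth inhibition measured by a cell viability assay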
Description: SANGER: Inhibition of human MHH-ES-1 cell growth in a cell viability assay.

CaR-1 = type: functional, cell-based, Homo sapiens; conditions: Homo sapiens, CaR-1;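 also: growth inhibition of human CaR-1 cancer cells, read out with a cell viability assay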
Description: SANGER: Inhibition of human CaR-1 cell growth in a cell viability assay.

TK-10 = type: functional, cell-based, Homo sapiens; conditions: Homo sapiens, TK-10;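 also: growth inhibition of TK-10 cells, read out in a cell viability assay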
Description: SANGER: Inhibition of human TK10 cell growth in a cell viability assay.

NCI-H460 = type: functional, cell-based, Homo sapiens; conditions: Homo sapiens, NCI-H460;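 also: cell viability assay scoring growth inhibition of human NCI-H460 cells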
Description: SANGER: Inhibition of human NCI-H460 cell growth in a cell viability assay.

KARPAS-299 = type: functional, cell-based; conditions: Homo sapiens
Description: SANGER: Inhibition of human KARPAS-299 cell growth in a cell viability assay.

MEL-HO = type: functional, cell-based, Homo sapiens; conditions: Homo sapiens, MEL-HO
Description: SANGER: Inhibition of human MEL-HO cell growth in a cell viability assay.

Row | SMILES | IC50 (8305C) [nM] | IC50 (CFPAC-1) [nM] | IC50 (NCI-H1666) [nM] | IC50 (SK-MEL-1) [nM] | IC50 (H9) [nM] | IC50 (HCT-15) [nM] | IC50 (Kasumi 1) [nM] | IC50 (ESS-1) [nM] | IC50 (HPAF-II) [nM] | IC50 (D-566MG) [nM] | IC50 (COR-L23) [nM] | IC50 (ChaGo-K-1) [nM] | IC50 (HLE) [nM] | IC50 (EW-16) [nM] | IC50 (OVCAR-8) [nM] | IC50 (RH-18) [nM] | IC50 (RPMI-8866) [nM] | IC50 (LU-135) [nM] | IC50 (SKG-IIIa) [nM] | IC50 (HCE-T) [nM] | other results
1 | CN(C)C/C=C/C(=O)Nc1cc2c(Nc3ccc(F)c(Cl)c3)ncnc2cc1O[C@H]1CCOC1 [AFATINIB] | > 500 | > 500 | > 500 | > 500 | 71.3 | > 500 | 9.11 | > 500 | > 500 | > 500 | > 500 | > 500 | 350 | > 500 | > 500 | > 500 | > 500 | > 500 | > 500 | > 500 | IC50 (HT55): > 500 nM; IC50 (KM-H2): > 500 nM; IC50 (KNS-62): > 500 nM; IC50 (A549): > 500 nM; IC50 (DoTc2-4510): 322 nM; IC50 (MHH-ES-1): > 500 nM; IC50 (CaR-1): > 500 nM; IC50 (TK-10): 267 nM; IC50 (NCI-H460): > 500 nM; IC50 (KARPAS-299): > 500 nM; IC50 (MEL-HO): > 500 nM
2 | O=C(NOCC1CC1)c1ccc(F)c(F)c1Nc1ccc(I)cc1Cl [CI-1040] | 7100 | > 10000 | 6080 | 1230 | 22.8 | > 10000 | 399 | > 10000 | 3750 | 6540 | 7240 | > 10000 | > 10000 | 8080 | > 10000 | > 10000 | 6210 | 7560 | > 10000 | 2830 | IC50 (KM-H2): > 10000 nM; IC50 (KNS-62): 2510 nM; IC50 (A549): 1200 nM; IC50 (DoTc2-4510): 7120 nM; IC50 (MHH-ES-1): > 10000 nM; IC50 (CaR-1): > 10000 nM; IC50 (TK-10): 6330 nM; IC50 (NCI-H460): > 10000 nM; IC50 (KARPAS-299): > 10000 nM; IC50 (MEL-HO): 277 nM
3 | Nc1ccn([C@@H]2O[C@H](CO)[C@@H](O)[C@@H]2O)c(=O)n1 [CYTARABINE] | > 2000 | 1060 | 1580 | > 2000 | 391 | > 2000 | > 2000 | > 2000 | > 2000 | 269 | 797 | > 2000 | 1590 | 266 | 211 | > 2000 | 740 | > 2000 | 915 | > 2000 | IC50 (HT55): > 2000 nM; IC50 (KM-H2): > 2000 nM; IC50 (KNS-62): > 2000 nM; IC50 (A549): 49.7 nM; IC50 (DoTc2-4510): 1600 nM; IC50 (MHH-ES-1): 323 nM; IC50 (CaR-1): > 2000 nM; IC50 (TK-10): 1730 nM; IC50 (NCI-H460): > 2000 nM; IC50 (KARPAS-299): > 2000 nM; IC50 (MEL-HO): > 2000 nM
